Patent US9006271B2, “5-[5-[2-(3,5-bis(trifluoromethyl)phenyl)-2-methylpropanomethylpropanoylmethylamino]-4-(4-fluoro-2-methylphenyl)]-2-pyridinyl-2-alkyl-prolinamide as NK1 receptor antagonists” (Nerre Therapeutics Limited, priority 2008, dated 2015)
Where a name gives a salt, the structure may show the parent alone.

Legend:
[1] = target: T1, NK1 receptor (Meriones unguiculatus, UniProt Q5DUB1); assay: gerbil foot tapping model (GR73632-induced, icv); format: in vivo
T1 construct: from tissue; host or cells: living gerbil, central nervous system (in vivo)
Excerpt: The ability of the compounds of the invention to penetrate the central nervous system and to bind at the NK1 receptor may be determined using the gerbil foot tapping model as described by Rupniak & Williams, Eur. Jour. of Pharmacol., 1994.
Intracerebroventricular (icv) administration of the NK1 receptor agonist GR73632 (R. M. Hagan et al., Neuropeptides 1991, 19 (2), 127-135) a characteristic hind leg foot tapping (GFT) response in gerbils which can be inhibited by potent NK1 receptor antagonists. The gerbil foot tapping paradigm was carried out as follows; gerbils were dosed with compound of the invention, and following an appropriate pre-treatment time were anaesthetised using isofluorane/oxygen mixture. The skull was then exposed and 5 ul of GR73632 (3 pmol conc.) was injected by insertion of a cuffed 25 G needle to a depth of 4 mm below bregma, directly into the lateral ventricle (intracerebroventricular dosing). Immediately following the injection, gerbils were placed individually into a clear observation box to recover. Upon the gerbil regaining its righting reflex, the duration of repetitive hind foot tapping was recorded over a 5 minute period. […]

[2] = test system: common marmosets; assay: marmoset human threat test; format: in vivo, common marmoset; settings: for No. jumps (index of locomotor activity): 1 h before test, mean±SEM n=4, vehicle 16.3 ± 1.7
Experimental: For example the marmoset human threat test (Costall et al., 1988 The study utilised in house laboratory-bred male and female common marmosets over 2 years of age, weighing 300-500 g. The animals were caged in couples, in a housing room maintained at 25±1° C., 60% humidity and a 12 hour light/dark cycle (lights on at 0600, with 30 min simulated dawn and twilight). Testing was carried out with the animals situated in the home cage. One hour before the test animals were treated orally with vehicle (0.5% HPMC) or test compound (1 ml/kg). After a wash-out period of at least three days, treatments were reassigned and the study was complete when all animals had received all treatments. Number of specific behavioural postures in response to the human threat and the number of jumps were analysed in this study. The postures recorded in the test were those described by Costall et al (1988). and the number of jumps from the back of the cage to the cage front provided an index of locomotor activity to assess potential for sedation or locomotor stimulation. […] Results are expressed as mean±SEM (n=7). of number of postures and as a mean±SEM (n=4) of number of jumps. Data were subjected to one-way analysis of variance (ANOVA) followed by Dunnett's test, comparing each compound dose with vehicle treatment, using Statistica software (version 8.0) Statistically significant differences with respect to vehicle are indicated as *P<0.01.

T1 sequence (Q5DUB1 whole entry): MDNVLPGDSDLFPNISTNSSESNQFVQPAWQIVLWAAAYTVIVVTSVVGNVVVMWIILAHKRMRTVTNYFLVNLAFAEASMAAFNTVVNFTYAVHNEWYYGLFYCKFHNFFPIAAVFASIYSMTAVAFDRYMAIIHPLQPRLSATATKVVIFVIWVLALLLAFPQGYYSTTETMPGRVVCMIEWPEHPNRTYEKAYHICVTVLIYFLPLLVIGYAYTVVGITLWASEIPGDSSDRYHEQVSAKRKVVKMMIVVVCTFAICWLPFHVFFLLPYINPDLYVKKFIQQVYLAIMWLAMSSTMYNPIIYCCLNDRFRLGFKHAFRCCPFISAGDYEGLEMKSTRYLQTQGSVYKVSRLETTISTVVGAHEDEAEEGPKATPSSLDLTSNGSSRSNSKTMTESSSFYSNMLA

GR73632-induced foot tapping behaviour ([1]; 0.3, 1.0 and 3.0 mg/kg p.o., P<0.01): significantly attenuated
ID50 as plasma concentration ([1]; plasma, p.o.): approximately 5 ng/ml
No. jumps (index of locomotor activity) ([2]; 0.1 mg/kg oral): 20.1 ± 2.1
No. jumps (index of locomotor activity) ([2]; 0.3 mg/kg oral): 13.4 ± 2.5
No. jumps (index of locomotor activity) ([2]; 1 mg/kg oral): 13.0 ± 2.1
SMILES: Cc1cc(F)ccc1-c1cc([C@H]2CC[C@](C)(C(N)=O)N2)ncc1N(C)C(=O)C(C)(C)c1cc(C(F)(F)F)cc(C(F)(F)F)c1 [Example 11, (5R)-5-[5-[{2-[3,5-bis(trifluoromethyl)phenyl]-2-methylpropanoyl}(methyl)amino]-4-(4-fluoro-2-methylphenyl)-2-pyridinyl]-2-methyl-D-prolinamide bis-hydrochloride]
effect on number of jumps ([2]; 0.1, 0.3 or 1 mg/kg oral): not accompanied by a reduction in the number of jumps
effect on number of postures ([2]; 0.1, 0.3 or 1 mg/kg oral, significant at 0.3 and 1 mg/kg (P<0.01)): dose dependent reduction in the number of postures
